# Results from patent US20230002446A1, “ANTI-INFLAMMATORY AGENTS” (The University of Sydney, priority 2019, published 2023).
# Where a SMILES comes first, the peptide text is derived from it. [ ]: non-standard residue; d: D form. AEEA = NCCOCCOCC(=O)O
# Experiments:
# dermal dendritic cells = assay: intradermal injection into healthy human skin explants, myeloid cell activation; assay type: cell-based; conditions: intra-dermal injection, overnight culture
# Method: FIG. 7—Peptide administration reduces spontaneous myeloid cell activation in human skin. (A) Peptide RP23 (SEQ ID NO: 12) was injected intradermally into healthy human skin grafts. Myeloid cell activation was assessed after overnight culture. (B) The effect of peptide RP23 on the spontaneous upregulation of activation markers on myeloid cell subsets in the skin. Data are representative of 6 donors.
# Using an in vitro culture system, it was determined whether RP23 could suppress the activity of specific pro-inflammatory immune cells. […] The culture of murine bone marrow derived macrophages with RP23 led to reduced IL-6, MCP-1 and TNF release after LPS-stimulation (FIG. 5b). Similarly, primary human blood derived macrophages had reduced IL-6 and IL-12/23 release after stimulation with either LPS or imiquimod (FIG. 5c).
# UV13-1 tumour cells = assay: murine skin tumour model, peptide trialled as vaccine antigen; assay type: in vivo, mice; conditions: 5 nmol sub-cutaneous 21 and 7 days prior to transfer of UV13-1 tumour cells
# Method: FIG. 1—Peptide administration leads to accelerated skin tumour growth. Mice received sub-cutaneous injections of mixtures containing 5 nmol peptide RP23 (SEQ ID NO:12) (solid line), PBS or liposome controls (dotted line) 21 and 7 days prior to transfer of UV13-1 tumour cells. […] Difference in survival was analysed statistically using a log-rank test.
# The inventors initially trialled RP23 (SEQ ID NO: 12) as a vaccine antigen in a murine skin tumour model. […] They then assessed whether RP23 could reduce inflammation in a murine model of contact dermatitis, using a contact hypersensitivity assay (FIG. 2a). […] Using RP23, the inventors carried out a dose-response assay to titrate the immune suppression. Using three doses in the low nanomole range (2, 5 or 10 nmol, about 0.3 0.8, 1.6 mg/kg), a dose-dependent reduction in ear swelling of up to 100% compared to controls was observed (FIG. 3c). […] Further, in a murine model of imiquimod-induced psoriasis (FIG. 4a), a single injection of RP23 reduced local erythema, skin thickness and scaling (FIG. 4b,c).
# [1] = system: murine macrophages/monocytes; assay type: cell-based
# Method: (§1) FIG. 6—Peptide administration is not cytostatic or cytotoxic to murine and human macrophages/monocytes. Cytostatic/cytotoxic effect of peptide RP23 (SEQ ID NO:12) was assessed after overnight incubation (A) by WST-1 assay in RAW and THP-1 cell lines (data are the means of 2 replicates) (B) by LDH assay in primary murine BMDMs or human MDMs (data are mean±S.E.M).
# [2] = system: human macrophages/monocytes; assay type: cell-based
# Method: as §1
smiles,measurement,setting,value
CSCC[C@H](NC(=O)COCCOCCNC(=O)[C@H](CCCCN)NC(=O)[C@H](CCCCN)NC(=O)[C@H](CCCCN)NC(=O)[C@@H](N)CCCCN)C(=O)N[C@H](C(=O)N1CCC[C@H]1C(=O)NCC(=O)N[C@H](C(=O)N[C@@H](CCC(N)=O)C(=O)N[C@@H](CO)C(=O)N1CCC[C@H]1C(=O)N[C@@H](Cc1ccccc1)C(=O)N[C@@H](Cc1ccccc1)C(=O)N[C@@H](CC(C)C)C(=O)N[C@@H](CC(C)C)C(=O)N[C@@H](CC(C)C)C(=O)N[C@@H](CC(C)C)C(=O)N[C@@H](CC(C)C)C(=O)N[C@H](C(=O)N[C@H](C(=O)N[C@@H](CC(C)C)C(=O)N[C@H](C(=O)N[C@H](C(=O)N[C@H](C(=O)O)C(C)C)C(C)C)[C@@H](C)O)C(C)C)[C@@H](C)O)[C@@H](C)O)[C@@H](C)O [RP23] (H-KKKK[AEEA]MTPGTQSPFFLLLLLTVLTVV-OH),spontaneous activation of dermal dendritic cells,dermal dendritic cells,reduced spontaneous activation of dermal dendritic cells
same,skin tumour growth,UV13-1 tumour cells,modest increase in tumour growth
same,survival of tumour-bearing mice,UV13-1 tumour cells,succumbed to their tumour earlier
same,cytostatic or cytotoxic effects,[1],without causing any cytostatic or cytotoxic effects
same,cytostatic or cytotoxic effects,[2],without causing any cytostatic or cytotoxic effects
